{"source": "patent US5608143A", "about": "“External regulation of gene expression” (E. I. Du Pont de Nemours and Company, priority 1994, dated 1997)", "key": {"[1]": {"test_system": "2-1 gene (In 2-1 mRNA)", "test": "RNA slot blot / Northern analysis of 2-1 mRNA in roots of chemically treated corn", "format": "in vivo, corn (Missouri 17)", "design": "In2-1 induction level: key to the marks not given beside the values", "experimental": "Missouri 17 corn seeds were surface sterilized by soaking them in a solution of 10% commercial bleach and 0.1% sodium dodecylsulfate (SDS) for 30 minutes. Seeds were then rinsed thoroughly in a buchner funnel with sterile distilled water and prepared for germination by placing them onto 5-6 layers of moist sterile paper towels in a 8\"×10\" glass baking tray. The tray was covered with aluminum foil and placed in the dark in a 30° C. incubator for 48-72 hours to allow the seeds to germinate. After germination, seedlings were grown hydroponically in an apparatus consisting of a sheet of 8 mesh stainless steel wire gauze suspended over the top of a 2 liter glass beaker filled with sterile half strength Hoagland's solution (referred to 0.5× Hoagland's) so that the roots extended through the mesh and into the media. The hydroponic apparatus was aerated by introducing humidified air into the bottom of the beaker with a gas diffusing stone commonly used in tropical fish aquariums. The apparatus was covered with a loose-fitting sheet of aluminum foil and placed in a reach-in growth chamber illuminated by both fluorescent and incandescent lamps at an intensity of 4400 lux. Seedlings were grown at 28° C., 75% relative humidity using a 16 hour day/8 hour night cycle. After two days, the foil was removed and plants were grown for an additional 5-6 days. Any 0.5× Hoagland's lost to evaporation was replenished every 2-3 days. […] Plants were then allowed to grow for six additional hours prior to harvest.\nA nitrocellulose filter (Schlicher and Schull BA-85) was wetted by soaking it twice for 10 minutes in water, followed by a 10 minute soak in 1M ammonium acetate. The filter was then placed into a Slot Blot apparatus (Schleicher and Schuell, Inc., Keene, N.H. 03431, CAT #SRC072/0). […] Forty pl of denaturation buffer (30% formaldehyde, 100 mM sodium phosphate pH 6.8) were added to each sample and all samples were then incubated at 65° C. for 20-30 minutes and quick-cooled in an ice slurry for 5 minutes. Thirty μl of 4M ammonium acetate were added to each sample and the 150 μl samples were added to slots in the blotting cell with the aid of a 10-15 mm Hg vacuum. The filter was removed from the blotting cell, air dried and baked for 2 hours at 70° C. in vacuo.\nThe filter was cut into six pieces such that each piece had one slot cox.raining RNA from each of the three treatments described above. One of the filter pieces was incubated with 10 ml of prehybridization buffer (50% deienized formamide, 5× SSC, 5× Denhardt's, 100 μg/ml denatured calf thymus DNA, 20 μg/ml homopoly(A), 40 mM sodium phosphate pH 6.8 and 0.5% BSA) in a heat-sealable bag for 6 hours at 42° C. with occasional mixing. The filter piece was then hybridized with nick-translated pIn 2-1. This was performed by discarding the prehybridization solution from the bag and replacing it with 2.5 ml of hybridization buffer (50% deionized formamide, 5× SSC, 100 μg/ml denatured calf thymus DNA, 20 μg/ml homopoly(A) and 40 mM sodium phosphate, pH 6.8) containing 1.25×10^7 cpm of nick translated 2-1 plasmid described above. Nick-translated plasmid was denatured by boiling for 10 minutes followed by quick-cooling on ice. The filter was then hybridized overnight at 42° C. with occasional mixing."}, "[2]": {"test_system": "tobacco leaf pieces (callus formation)", "test": "Callus formation of leaf pieces from kanamycin-resistant tobacco shoots on selective medium", "format": "cell-based", "details": "sixteen kanamycin-resistant shoots, three weeks; 10 ppb chlorsulfuron and/or 100 ppm D5293", "excerpt": "Callus formation was scored as plus or minus after three weeks of growth."}, "[3]": {"test_system": "5-2 gene (In 5-2 mRNA)", "test": "RNA slot blot / Northern analysis of 5-2 mRNA in roots of chemically treated corn", "format": "in vivo, corn (Missouri 17)", "design": "In5-2 induction level: key to the marks not given beside the values", "experimental": "Details of the techniques used to perform Example 3 are presented in Example 1. The cDNA library made from poly (A)+ RNA from the roots of N-(aminocarbonyl)-2-chlorobenzenesulfonamide-treated Missouri 17 corn plants described in Example 1 was analyzed for additional cDNA clones representing N-(aminocarbonyl)-2-chlorobenzenesulfonamide-induced mRNAs. […] This colony was designated In 5-2.\nA small scale plasmid preparation was performed on an overnight culture of In 5-2 and an aliquot of the plasmid, designated pIn 5-2, was nick-translated as described earlier. Slot blot analysis was performed as described in Example 1 using nick-translated In 5-2 plasmid. […] This plasmid was designated pIn 5-2.\nAn aliquot of the small scale plasmid preparation of pIn 5-2 was digested to completion with PSt I and analyzed by agarose gel electrophoresis. The cDNA insert of the plasmid was excised as a single 420 bp Pst I fragment. Plasmid pin 5-2 was nick-translated and used to probe a Northern blot of RNA from both untreated and N-(aminocarbonyl)-2-chlorobenzenesulfonamide-treated roots.\nThe ability at various substituted benzenesulfonamides and related compound to induce the expression of the 2-1, 2-2, and 5-2 genes of Missouri 17 corn was evaluated. Corn seeds were germinated and grown hydroponically in 2 liter beakers as described in Example 1. On the tenth day, plants were transferred into fresh 0.5× Hoagland's solution containing the chemical to be tested. Root tissue was harvested from the plants after six hours of chemical treatment, quick-frozen by immersion in liquid N2, and stored at -80° C. until analyzed.\nDetails of the RNA isolation and slot blot analysis procedures are presented in Example 1. Total RNA was prepared from the root tissue of plants that had been treated with various chemicals using the previously described guanidine thiocyanate procedure. Replicate blots, each consisting of 2 μg of total RNA from tissues treated with each of the chemicals shown in tables 8 and 9, were prepared on nitrocellulose membranes using a Minifold II® Slot-blotter (Schleicher & Schuell) following the manufacturer's recommeneded procedure. Replicate blots were prehybridized and hybridized with cDNA probes made by nick translation of the purified cDNA inserts from plasmid pIn 2-1, pIn 2-2-3, and pIn 5-2. Slot blots were washed as described in Example 1 and exposed to Kodak X-OMAT XAR-5 film for 24 hours at -80° C. using a single Du Pont Lightning Plus intensifying screen. Film was developed using a Kodak X-OMAT film processor. The abililty of a chemical to induce the mRNA encoded by the three inducible genes was evaluated in one of two ways. Qualitative evaluation was performed by direct visual comparison of the autoradiographic signal intensities on the films for the hybridization of each probe to the different RNA samples. Quantitative evaluation was performed by cutting each slot containing hybridized RNA from the blot, immersing it in 2 ml of Du Pont ECONOFLUOR® scintillation cocktail and counting the radioactivity in each slot in a scintillation counter. The net amount of radioactivity hybridizing to N-(aminocarbonyl)-2-chlorobenzenesulfonamide-treated RNA after subtraction of radioactivity hybridizing to untreated RNA is presented in Table 15."}, "[4]": {"details": "hydroponic application, 100 ppm"}, "[5]": {"details": "hydroponic treatment, corn roots"}}, "data": [{"compound": "NC(=O)NS(=O)(=O)c1ccccc1Cl", "values": [{"measurement": "hybridization of pIn 2-1 to root RNA (RNA slot blot)", "setting": "[1]; hydroponic 0.2 g/liter, six hours, corn roots", "value": "strongly hybridized"}, {"measurement": "In2-1 induction level", "setting": "[1]; [4]", "value": "+++++"}, {"measurement": "hybridization of pIn 2-1 to root poly(A)+ RNA (Northern blot)", "setting": "[1]; [5]", "value": "single intense hybridization signal"}, {"measurement": "Callus formation (shoots whose leaf pieces formed callus / shoots tested)", "setting": "[2]", "value": "0/16"}, {"measurement": "In5-2 induction level", "setting": "[3]; [4]", "value": "+++++"}, {"measurement": "hybridization of pIn 5-2 to root RNA (Northern blot)", "setting": "[3]; [5]", "value": "induced in root tissue by chemical treatment"}, {"measurement": "hybridization of pIn 5-2 to root RNA (slot blot)", "setting": "[3]; [5]", "value": "hybridizes strongly"}]}]}
